Laboratory results published in patent publication US4318916A, “Antibiotic PS-5 and derivatives having β-lactamase inhibitory activity and production thereof” (Sanraku-Ocean Co., Ltd., priority 1977, dated 1982).
Values after ≈ are worked out from the molar mass of the structure shown. Like-named read-outs stand apart in the source and are kept apart here. One block for each molecule: values may come before it.

Legend:
Assay type in all cases: cell-based
Proteus vulgaris P-5 [1] = experiment: Potentiation disc assay with cephaloridine (Table 10); conditions: for Potentiation of the antimicrobial activity of cephaloridine: disc assay, Table 10; for Inhibition zone With CER: 50 μg/ml cephaloridine in agar; for zone of inhibition at 625 µg/mL / zone of inhibition at 2500 µg/mL / zone of inhibition at 10000 µg/mL: P5, 18 h, read-out: Inhibition zone Without CER
Description: (A) Ten milliliters of molten nutrient agar containing 50 μg/ml of penicillin G or cephaloridine, 0.8% of Kyokuto Nutrient Broth Powder and 1.0% of Difco Bacto-Agar (pH 7.0) were seeded with the beta-lactam-resistant, beta-lactamase-producing microorganisms indicated in Tables 9 and 10, and poured in a 9-cm Petri dish to provide the bio-assay agar plate. On this assay plate, 8-mm pulp discs containing 25 μl each of antibiotic PS-5 solutions at the indicated concentrations were placed and incubated at 35° C. for 18 hours before reading the inhibition zones. The control assay plate was similarly prepared without penicillin G nor cephaloridine. As reference antibiotics, penicillin G, ampicillin, oxacillin and cefazolin were disc-assayed under the same conditions.

[2] = system: Bacillus subtilis ATCC 6633; experiment: MIC by broth dilution (Table 8); conditions: ATCC6633, 20 h; Bacillus subtilis ATCC 6633; read-out: Minimum inhibitory concentration
Description: (§1) The MIC values of antibiotic PS-5 sodium salt were determined on various pathogenic microorganisms including resistant strains by the broth dilution method utilizing the BRAIN HEART INFUSION BROTH `Eiken` (EIKEN CHEMICAL CO., LTD.).
(§2) The antibiotic PS-5 sodium salt was dissolved in BRAIN HEART INFUSION BROTH `Eiken` (EIKEN CHEMICAL CO., LTD.) (pH 7.0) at concentration in the range of 5-50 μg/ml, from which appropriate dilution series were made in the same liquid medium. The microorganisms listed in Table 8 were cultivated for 18 hours in BRAIN HEART INFUSION BROTH `Eiken` at 28° C. and inoculated into the said dilution series of antibiotic PS-5 at a final inoculum size of 1×10^5 cells/ml. The cultures were allowed to stand at 35° C. for 20 hours, and then the growth of the microorganisms was read at each dilution of antibiotic PS-5. The minimum inhibitory concentration (MIC) represents the smallest concentration of the antibiotic PS-5 (sodium salt) where no propagation of the relevant microorganism was visually confirmed. As the controls, two known beta-lactam antibiotics, cephaloridine and cefoxitin were dissolved in brain heart infustion broth at pH 7.0 at concentrations ranging from 1 μg/ml to 100 μ g/ml and then diluted to make several dilution series in the above mentioned liquid medium. These samples were treated as described above for the MIC determinations.

[3] = system: Diplococcus pneumoniae Type III; experiment: MIC by broth dilution (Table 8); conditions: Streptococcus pneumoniae, 20 h; Diplococcus pneumoniae Type III; 10% horse blood supplemented into the medium; read-out: Minimum inhibitory concentration
Description: as §1, §2

[4] = system: Staphylococcus aureus Bx-1633; experiment: MIC by broth dilution (Table 8); conditions: BX1633, 20 h; Staphylococcus aureus Bx-1633; PS-5 as sodium salt; read-out: Minimum inhibitory concentration
Description: as §1, §2

[5] = system: Staphylococcus aureus EDA 209 P; experiment: MIC by broth dilution (Table 8); conditions: EDA209P, 20 h; Staphylococcus aureus EDA 209 P; PS-5 as sodium salt; read-out: Minimum inhibitory concentration
Description: as §1, §2

[6] = system: Staphylococcus aureus Smith; experiment: MIC by broth dilution (Table 8); conditions: 20 h; Staphylococcus aureus Smith; PS-5 as sodium salt; read-out: Minimum inhibitory concentration
Description: as §1, §2

[7] = system: Streptococcus pyogenes NY-5; experiment: MIC by broth dilution (Table 8); conditions: NY5, 20 h; Streptococcus pyogenes NY-5; 10% horse blood supplemented into the medium; read-out: Minimum inhibitory concentration
Description: as §1, §2

[8] = system: Alcaligenes faecalis B-326; experiment: MIC by broth dilution (Table 8); conditions: B326, 20 h; Alcaligenes faecalis B-326; read-out: Minimum inhibitory concentration
Description: as §1
as §2, with “determinations. In addition to the MIC values of antibiotic PS-5, those of cephaloridine and cefoxitin are included for reference.” for “determinations.”

Citrobacter freundii E-9 = experiment: MIC by broth dilution (Table 8); conditions: E9, 20 h; Citrobacter freundii E-9; betalactamase producer; read-out: Minimum inhibitory concentration
Description: as §1
as §2, with “determinations. In addition to the MIC values of antibiotic PS-5, those of cephaloridine and cefoxitin are included for reference.” for “determinations.”

[9] = system: Enterobacter aerogenes E-19; experiment: MIC by broth dilution (Table 8); conditions: Klebsiella aerogenes, E19, 20 h, betalactamase producer, read-out: Minimum inhibitory concentration
Description: as §1
as §2, with “determinations. In addition to the MIC values of antibiotic PS-5, those of cephaloridine and cefoxitin are included for reference.” for “determinations.”

[10] = system: Enterobacter cloacae E-16; experiment: MIC by broth dilution (Table 8); conditions: E16, 20 h, betalactamase producer, read-out: Minimum inhibitory concentration
Description: as §1
as §2, with “determinations. In addition to the MIC values of antibiotic PS-5, those of cephaloridine and cefoxitin are included for reference.” for “determinations.”

Enterobacter sp. E-8 = experiment: MIC by broth dilution (Table 8); conditions: SP.E8, 20 h; Enterobacter sp. E-8; betalactamase producer; read-out: Minimum inhibitory concentration
Description: as §1
as §2, with “determinations. In addition to the MIC values of antibiotic PS-5, those of cephaloridine and cefoxitin are included for reference.” for “determinations.”

Escherichia coli K 12 = experiment: MIC by broth dilution (Table 8); conditions: K12, 20 h; Escherichia coli K 12; read-out: Minimum inhibitory concentration
Description: as §1
as §2, with “determinations. In addition to the MIC values of antibiotic PS-5, those of cephaloridine and cefoxitin are included for reference.” for “determinations.”

[11] = system: Klebsiella pneumoniae K-2; experiment: MIC by broth dilution (Table 8); conditions: K2, 20 h, betalactamase producer, read-out: Minimum inhibitory concentration
Description: as §1
as §2, with “determinations. In addition to the MIC values of antibiotic PS-5, those of cephaloridine and cefoxitin are included for reference.” for “determinations.”

Proteus mirabilis P-6 = experiment: MIC by broth dilution (Table 8); conditions: P6, 20 h, resistant to kanamycin, gentamicin and tobramycin, read-out: Minimum inhibitory concentration
Description: as §1
as §2, with “determinations. In addition to the MIC values of antibiotic PS-5, those of cephaloridine and cefoxitin are included for reference.” for “determinations.”

Proteus rettgeri P-7 = experiment: MIC by broth dilution (Table 8); conditions: Providencia rettgeri, P7, 20 h, resistant to gentamicin and tobramycin, read-out: Minimum inhibitory concentration
Description: as §1
as §2, with “determinations. In addition to the MIC values of antibiotic PS-5, those of cephaloridine and cefoxitin are included for reference.” for “determinations.”

Proteus sp. P-22 = experiment: MIC by broth dilution (Table 8); conditions: 20 h; Proteus sp. P-22; read-out: Minimum inhibitory concentration
Description: as §1
as §2, with “determinations. In addition to the MIC values of antibiotic PS-5, those of cephaloridine and cefoxitin are included for reference.” for “determinations.”

Proteus vulgaris P-5 [12] = experiment: MIC by broth dilution (Table 8); conditions: P5, 20 h, betalactamase producer, read-out: Minimum inhibitory concentration
Description: as §1
as §2, with “determinations. In addition to the MIC values of antibiotic PS-5, those of cephaloridine and cefoxitin are included for reference.” for “determinations.”

Providencia sp. P-8 = experiment: MIC by broth dilution (Table 8); conditions: SP.P8, 20 h, resistant to kanamycin, gentamicin and tobramycin, read-out: Minimum inhibitory concentration
Description: as §1
as §2, with “determinations. In addition to the MIC values of antibiotic PS-5, those of cephaloridine and cefoxitin are included for reference.” for “determinations.”

Serratia marcescens S-18 = experiment: MIC by broth dilution (Table 8); conditions: S18, 20 h, betalactamase producer, read-out: Minimum inhibitory concentration
Description: as §1
as §2, with “determinations. In addition to the MIC values of antibiotic PS-5, those of cephaloridine and cefoxitin are included for reference.” for “determinations.”

[13] = system: Staphylococcus aureus Russell; experiment: MIC by broth dilution (Table 8); conditions: 20 h; Staphylococcus aureus Russell; PS-5 as sodium salt; read-out: Minimum inhibitory concentration
Description: as §1
as §2, with “determinations. In addition to the MIC values of antibiotic PS-5, those of cephaloridine and cefoxitin are included for reference.” for “determinations.”

[14] = Proteus vulgaris P-5, reference antibiotic 625 μg/ml
[15] = Proteus vulgaris P-5, reference antibiotic 2,500 μg/ml
[16] = Proteus vulgaris P-5, reference antibiotic 10,000 μg/ml

Compound: CC1(C)S[C@@H]2[C@H](NC(=O)Cc3ccccc3)C(=O)N2[C@H]1C(=O)O [Penicillin G, penicillin G]
- Potentiation of the antimicrobial activity of cephaloridine (Proteus vulgaris P-5 [1]; Proteus vulgaris P-5): could not increase the antimicrobial activity of cephaloridine
- Inhibition zone With CER (Proteus vulgaris P-5 [1]; [14]): 0 mm
- Inhibition zone With CER (Proteus vulgaris P-5 [1]; [15]): 0 mm
- Inhibition zone With CER (Proteus vulgaris P-5 [1]; [16]): 14.5 mm
- zone of inhibition at 625 µg/mL (Proteus vulgaris P-5 [1]; Proteus vulgaris): 0 mm
- zone of inhibition at 2500 µg/mL (Proteus vulgaris P-5 [1]; Proteus vulgaris): 0 mm
- zone of inhibition at 10000 µg/mL (Proteus vulgaris P-5 [1]; Proteus vulgaris): 14.9 mm

Compound: Cc1onc(-c2ccccc2)c1C(=O)N[C@@H]1C(=O)N2[C@@H]1SC(C)(C)[C@@H]2C(=O)O [Oxacillin, oxacillin]
- Potentiation of the antimicrobial activity of cephaloridine (Proteus vulgaris P-5 [1]; Proteus vulgaris P-5): could not increase the antimicrobial activity of cephaloridine
- Inhibition zone With CER (Proteus vulgaris P-5 [1]; [14]): 0 mm
- Inhibition zone With CER (Proteus vulgaris P-5 [1]; [15]): 0 mm
- Inhibition zone With CER (Proteus vulgaris P-5 [1]; [16]): 0 mm
- zone of inhibition at 625 µg/mL (Proteus vulgaris P-5 [1]; Proteus vulgaris): 0 mm
- zone of inhibition at 2500 µg/mL (Proteus vulgaris P-5 [1]; Proteus vulgaris): 0 mm
- zone of inhibition at 10000 µg/mL (Proteus vulgaris P-5 [1]; Proteus vulgaris): 0 mm

- MIC [2]: 1.25 µg/mL (≈ 2.92 µM)
- MIC [3]: 1.25 µg/mL (≈ 2.92 µM)
- MIC [4]: 1.25 µg/mL
- MIC [5]: 1.25 µg/mL
- MIC [6]: 2.5 µg/mL
- MIC [7]: 0.63 µg/mL (≈ 1.47 µM)
- MIC [8]: 1.56 µg/mL (≈ 3.65 µM)
- MIC (Citrobacter freundii E-9): > 100 µg/mL
- MIC [9]: > 100 µg/mL
- MIC [10]: > 100 µg/mL
- MIC (Enterobacter sp. E-8): 12.5 µg/mL (≈ 29.2 µM)
- MIC (Escherichia coli K 12): 2.5 µg/mL (≈ 5.85 µM)
- MIC [11]: 6.25 µg/mL (≈ 14.6 µM)
- MIC (Proteus mirabilis P-6): 12.5 µg/mL (≈ 29.2 µM)
- MIC (Proteus rettgeri P-7): 6.25 µg/mL (≈ 14.6 µM)
- MIC (Proteus sp. P-22): 12.5 µg/mL (≈ 29.2 µM)
- MIC (Proteus vulgaris P-5 [12]): 12.5 µg/mL (≈ 29.2 µM)
- MIC (Providencia sp. P-8): 25 µg/mL (≈ 58.5 µM)
- MIC (Serratia marcescens S-18): 50 µg/mL (≈ 117 µM)
- MIC [13]: 2.5 µg/mL
Compound: CO[C@@]1(NC(=O)Cc2cccs2)C(=O)N2C(C(=O)O)=C(COC(N)=O)CS[C@@H]21 [Cefoxitin, cefoxitin]

Compound: Cc1nnc(SCC2=C(C(=O)O)N3C(=O)[C@@H](NC(=O)Cn4cnnn4)[C@H]3SC2)s1 [Cefazolin, cefazolin]
- zone of inhibition at 625 µg/mL (Proteus vulgaris P-5 [1]; [14]): 0 mm
- zone of inhibition at 2500 µg/mL (Proteus vulgaris P-5 [1]; [15]): 0 mm
- zone of inhibition at 10000 µg/mL (Proteus vulgaris P-5 [1]; [16]): 14.6 mm
- Potentiation of the antimicrobial activity of cephaloridine (Proteus vulgaris P-5 [1]; Proteus vulgaris P-5): could not increase the antimicrobial activity of cephaloridine
- Inhibition zone With CER (Proteus vulgaris P-5 [1]; [14]): 0 mm
- Inhibition zone With CER (Proteus vulgaris P-5 [1]; [15]): 0 mm
- Inhibition zone With CER (Proteus vulgaris P-5 [1]; [16]): 12.0 mm
